Data on two compounds can be found in publication PMC10975012, “The Active Glucuronide Metabolite of the Brain Protectant IMM-H004 with Poor Blood–Brain Barrier Permeability Demonstrates a High Partition in the Rat Brain via Multiple Mechanisms” (Pharmaceutics, 2024).

Like-named read-outs stand apart in the source and are kept apart here.

Usually Km stands for the concentration of substrate that gives half-maximal velocity. A word on the fraction unbound: it is the share of the substance not bound to proteins or other matrix.

Data set [1] is described as follows: Uptake kinetics in hCMEC/D3 cells. The data set is classed as cell-based, human. Particulars: human, hCMEC/D3 cells, 2–400 μmol/L, 10 min. Here is the method:
(§1) Uptake assays into hCMEC/D3 cells were conducted in 24-well plates. All incubations were carried out at 37 °C in triplicate unless otherwise noted. In time-dependent uptake studies, hCMEC/D3 cells were incubated with IMM-H004 (10 µmol/L) and IMM-H004G (50 µmol/L) dissolved in HBSS under gentle shaking for up to 30 min. To investigate the impact of incubation temperature on the uptake of IMM-H004 and IMM-H004G by hCMEC/D3 cells, incubation was performed at 4 or 37 °C for 10 min. To determine the kinetic parameters, the cells were incubated with IMM-H004 and IMM-H004G (2–400 µmol/L) for 10 min. The uptake data were fitted to the following equation using nonlinear least-square regression analysis in GraphPad Prism 9 (GraphPad, San Diego, CA, USA):(1) V=Vmax×S/Km+S+Kns×S where V is the uptake velocity (nmol/mg protein/min), and S is the initial concentration (μmol/L). Vmax, Km, and Kns represent the maximum uptake velocity (nmol/mg protein/min), the Michaelis–Menten constant (μmol/L), and nonsaturable uptake clearance (μL/mg protein/min), respectively. The saturable uptake of both IMM-H004 and IMM-H004G was plotted with the Eadie–Hofstee method by subtracting passive uptake from the total uptake.

Data set [2] deals with hCMEC/D3 cells. Description: Uptake kinetics in hCMEC/D3 cells. The data set is classed as cell-based, human. Conditions: for reduction of uptake at 4 °C compared to 37 °C: 10 μmol/L; for reduction of uptake at 4 °C compared to 37 °C / Kns, passive diffusion rate / Vmax/Km ratio, transporter-mediated uptake: 10 min; for Kns, passive diffusion rate / Vmax/Km ratio, transporter-mediated uptake: 2–400 μmol/L. How it is done:
as §1

In data set [3] the target is T1, P-gp (Homo sapiens, UniProt P08183).
T1 construct: host or cells: hCMEC/D3
T1 sequence (P08183 whole entry): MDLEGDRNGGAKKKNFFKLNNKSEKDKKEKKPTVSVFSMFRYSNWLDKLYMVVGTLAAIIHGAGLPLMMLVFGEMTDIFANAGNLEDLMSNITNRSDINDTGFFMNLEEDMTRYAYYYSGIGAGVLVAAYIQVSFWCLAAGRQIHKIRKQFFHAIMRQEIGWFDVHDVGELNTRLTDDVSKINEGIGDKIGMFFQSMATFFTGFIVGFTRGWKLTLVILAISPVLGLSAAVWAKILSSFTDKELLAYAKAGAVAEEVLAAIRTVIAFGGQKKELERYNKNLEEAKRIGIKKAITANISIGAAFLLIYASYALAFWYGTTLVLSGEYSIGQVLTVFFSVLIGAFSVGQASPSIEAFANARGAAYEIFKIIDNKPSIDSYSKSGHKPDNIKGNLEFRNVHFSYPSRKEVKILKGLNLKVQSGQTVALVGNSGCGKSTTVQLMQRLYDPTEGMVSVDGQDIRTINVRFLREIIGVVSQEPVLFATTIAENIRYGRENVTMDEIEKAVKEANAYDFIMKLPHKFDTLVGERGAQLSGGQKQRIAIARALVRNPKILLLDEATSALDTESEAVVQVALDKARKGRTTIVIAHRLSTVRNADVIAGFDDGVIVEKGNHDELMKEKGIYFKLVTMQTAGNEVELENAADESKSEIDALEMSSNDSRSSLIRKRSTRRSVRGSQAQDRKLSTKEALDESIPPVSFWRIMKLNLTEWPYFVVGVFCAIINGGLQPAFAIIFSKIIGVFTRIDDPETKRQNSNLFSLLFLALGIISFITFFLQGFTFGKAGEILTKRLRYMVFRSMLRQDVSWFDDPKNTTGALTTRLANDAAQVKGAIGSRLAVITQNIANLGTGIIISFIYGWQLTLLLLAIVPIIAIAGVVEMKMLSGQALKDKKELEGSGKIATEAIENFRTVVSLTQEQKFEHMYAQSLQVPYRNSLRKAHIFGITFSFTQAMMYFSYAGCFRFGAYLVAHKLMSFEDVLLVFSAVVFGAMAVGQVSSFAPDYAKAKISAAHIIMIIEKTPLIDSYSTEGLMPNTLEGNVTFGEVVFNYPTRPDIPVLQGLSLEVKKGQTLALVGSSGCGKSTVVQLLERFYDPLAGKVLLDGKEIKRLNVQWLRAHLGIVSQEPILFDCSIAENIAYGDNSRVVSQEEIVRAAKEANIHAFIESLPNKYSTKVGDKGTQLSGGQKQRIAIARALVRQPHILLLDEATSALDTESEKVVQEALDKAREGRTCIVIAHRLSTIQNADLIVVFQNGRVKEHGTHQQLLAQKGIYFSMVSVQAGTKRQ
Description: Identification of transporters using inhibitors in hCMEC/D3 cells: P-gp. Particulars: substrate 10 μmol/L, PSC833 5 μmol/L. The data set is classed as cell-based. How it is done: (§2) The toxicity of all compounds, including inhibitors and substrates, toward hCMEC/D3 cells, was assessed using the 3-(4,5-Dimethylthiazol-2-yl)-2,5-diphenyltetrazolium bromide (MTT) reduction assay as described previously. To assess the effects of pyrilamine-sensitive proton-coupled organic cation (H^+/OC) antiporter, organic anion transporter (OAT), organic anion-transporting polypeptides (OATPs), organic cation transporter (OCT), and novel organic cation–carnitine transporter (OCTN) inhibitors on the uptake process, IMM-H004 or IMM-H004G (10 µmol/L) combined with the inhibitors were added to the medium after preincubating the cells with the inhibitors for 30 min. For evaluating the impact of the multidrug and toxin extrusion transporter (MATE), P-glycoprotein (P-gp), multidrug resistance protein (MRP), and breast cancer resistance protein (BCRP) on the uptake, IMM-H004 or IMM-H004G (10 µmol/L) was preincubated with the cells for 2 h before the addition of the inhibitors. After removing the supernatant, the cells were washed twice with prewarmed HBSS and incubated with fresh HBSS for 20 min. At the end of incubation, the supernatants were collected. […] The protein content of the lysed cells was determined using a bicinchoninic acid (BCA) assay kit (Beyotime Inc., Shanghai, China). The results were expressed as a percentage of the vehicle control.

The test system of data set [4] is OAT, OCT, OCTN, BCRP, and MRP. Put plainly: Identification of transporters using inhibitors in hCMEC/D3 cells: other transporters. The data set is classed as cell-based, human. Particulars: substrate 10 μmol/L. Here is the method:
as §2

Data set [5] is described as follows: Plasma protein binding, rapid equilibrium dialysis. The data set is classed as in vitro ADME. Particulars: rat, 0.5–10 μg/mL, RED, 37 °C, read-out: unbound fraction (fu) in rat plasma. How it is done:
The rat plasma protein binding of IMM-H004 and IMM-H004G (0.5–10 μg/mL) was investigated using a rapid equilibrium dialysis (RED) assay. The RED plate inserts utilized in this assay contained a dialysis membrane with a molecular weight cut-off of 8 kDa (Thermo Fisher Scientific, Waltham, MA, USA). For the assay, aliquots of plasma (0.2 mL) and phosphate-buffered saline (0.35 mL) were added to the sample chamber and buffer chamber, respectively. The plate was then sealed and incubated at 37 °C, 200 rpm for 4 h. Following the dialysis period, the concentrations of IMM-H004 and IMM-H004G were determined using LC-MS/MS. The ratio of the drug concentration in the buffer to that in the plasma chamber was used to calculate the unbound fraction (fu) of the drugs.
(In equilibrium dialysis free small molecules cross a membrane that holds back macromolecules.)

Data set [6] has as its system hCMEC/D3 cells. Put plainly: In vitro metabolism in human brain cells (hCMEC/D3). Particulars: IMM-H004 1–100 μmol/L. The data set is classed as in vitro ADME. Here is the method:
SH-SY5Y, HEB, and hCMEC/D3 cells were utilized to investigate the in vitro metabolism of IMM-H004 and IMM-H004G in the brain. SH-SY5Y and HEB cells were cultured routinely in Dulbecco’s modified Eagle’s medium (DMEM) containing 10% fetal bovine serum and a 100 U/mL penicillin–100 μg/mL streptomycin solution. hCMEC/D3 cells were seeded on collagen type I coated 24-well plates and cultured in EndoGRO™-MV complete medium following the manufacturer’s guidelines. The cells were incubated at 37 °C, with 5% CO2, and were maintained in a humidified environment. Once the confluence reached 70–80%, the cells were digested using a 0.25% trypsin–EDTA solution, centrifuged at 200× g for 5 min, and then resuspended in a fresh culture medium. For each experiment, after seeding and 24 h incubation, the cells were washed twice with a prewarmed culture medium, and then IMM-H004 or IMM-H004G (1–100 μmol/L) dissolved in the culture medium was added. Incubation was carried out at 37 °C for 5 h or 24 h. After incubation, the supernatants were collected. Subsequently, the cells were washed with cold HBSS three times and lysed in a RIPA lysis buffer (Beyotime Inc., Shanghai, China). The concentrations of IMM-H004 and IMM-H004G were determined by liquid chromatography with tandem mass spectrometry (LC-MS/MS).

Data set [7] concerns P-gp. Description: Bidirectional transport in MDCKⅡ-MDR1 cell monolayers. The data set is classed as in vitro ADME. Particulars: dog. Here is the method:
To further validate the effect of P-gp on the transport of IMM-H004G or IMM-H004, MDCKⅡ-MDR1 cells were seeded onto polycarbonate membrane transwell inserts in 24-well plates and used for transport studies after 5 days or when the effective transepithelial electric resistance (TEER) values exceeded 300 Ω·cm^2. The monolayers were initially rinsed twice with HBSS. Subsequently, IMM-H004G or IMM-H004 (10 µmol/L) was added to either the apical or basolateral side of the monolayer. Aliquots of 50 µL were collected from the opposite compartment at various time points, covering a maximum duration of 120 min. Digoxin (5 μmol/L) was used as a positive substrate, while PSC833 (5 µmol/L) was used as an inhibitor in MDCKⅡ-MDR1 cells. The apparent permeability value (Papp) was calculated using the following equation:(2) Papp=dQ/dt/AC0 where dQ/dt is the slope of the cumulative transport amount over time during the study period. A is the base area of the insert, and C0 is the initial addition concentration.
The efflux ratio (ER) was calculated as follows:ER = Papp(B−A)/Papp(A−B) (3)

Regarding `COc1cc(OC2OC(C(=O)O)C(O)C(O)C2O)cc2oc(=O)c(N3CCN(C)CC3)c(C)c12` (stereo not drawn) [IMM-H004G], in data set [1], the Km at 10 min is 10.7 µM. In the data set with hCMEC/D3 cells [2], the “reduction of uptake at 4 °C compared to 37 °C” value came to 70.6%; the “Kns, passive diffusion rate” value stood at 0.100 μL/min/mg protein; the “Vmax/Km ratio, transporter-mediated uptake” value is given as 1.50 μL/min/mg protein. The “uptake with P-gp inhibitor PSC833 relative to control” value on P-gp [3] was “without affecting”. Also, the “effect of inhibitors of OAT, OCT, OCTN, BCRP, and MRP on uptake” value in data set [4] is “No significant impact”. For the same compound, the fraction unbound at 4 h in data set [5] is 0.315 ± 0.008.

Turning to `COc1cc(O)cc2oc(=O)c(N3CCN(C)CC3)c(C)c12` [IMM-H004], the “production of IMM-H004G from IMM-H004” value in the data set with hCMEC/D3 cells [6] is “not detected”. Further, the Km at 10 min in data set [1] came out at 89.5 µM. In the data set with hCMEC/D3 cells [2], the “Kns relative to that of IMM-H004G” value amounted to 8.77 times; the “reduction of uptake at 4 °C compared to 37 °C” value was 57.1%; the “Kns, passive diffusion rate” value is 0.877 μL/min/mg protein; the “Vmax/Km ratio, transporter-mediated uptake” value stood at 18.8 μL/min/mg protein. Moreover, the “uptake with P-gp inhibitor PSC833 relative to control” value on P-gp [3] was 1.3 times that of the control. Also, the “effect of inhibitors of OAT, OCT, OCTN, BCRP, and MRP on uptake” value in data set [4] is “No significant impact”. In the data set on P-gp [7] (MDCK-MDR1, with PSC833 5 µmol/L, MDCKⅡ-MDR1, PSC833 5 µmol/L, read-out: efflux ratio (ER) in the presence of PSC833), the efflux ratio at 120 min worked out at 1.1. In the data set with P-gp [7] (MDCK-MDR1, MDCKⅡ-MDR1, no inhibitor, IMM-H004 10 µmol/L, digoxin 5 μmol/L, read-out: efflux ratio (ER)), the efflux ratio at 120 min was found to be 2.96. Further, the free fraction (fraction unbound) at 4 h in data set [5] came out at 0.025 ± 0.002.
